{"source": "paper PMC9945182", "about": "(Chemical Research in Toxicology, 2023)", "key": {"[1]": {"molecular_target": "T1, UGT2B10 (Homo sapiens, UniProt P36537)", "T1 sequence (P36537 24-528)": "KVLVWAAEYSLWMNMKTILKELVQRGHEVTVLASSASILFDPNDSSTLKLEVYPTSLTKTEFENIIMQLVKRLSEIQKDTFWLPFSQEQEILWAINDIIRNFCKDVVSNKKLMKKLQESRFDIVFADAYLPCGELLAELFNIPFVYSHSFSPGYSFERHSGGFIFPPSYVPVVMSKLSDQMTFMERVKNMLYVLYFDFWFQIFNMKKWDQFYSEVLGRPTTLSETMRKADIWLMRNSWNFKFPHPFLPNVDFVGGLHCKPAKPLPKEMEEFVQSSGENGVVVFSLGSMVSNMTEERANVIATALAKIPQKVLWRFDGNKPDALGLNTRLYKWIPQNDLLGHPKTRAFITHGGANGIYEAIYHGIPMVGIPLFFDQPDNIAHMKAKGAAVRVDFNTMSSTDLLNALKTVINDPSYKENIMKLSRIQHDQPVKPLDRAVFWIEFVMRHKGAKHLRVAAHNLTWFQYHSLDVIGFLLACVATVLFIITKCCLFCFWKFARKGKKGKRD", "assay_type": "biochemical", "details": "UGT2B10 microsomes; nicotine or cotinine as substrate; screening"}, "[2]": {"molecular_target": "T2, CYP2A6 (Homo sapiens, UniProt P11509)", "T2 sequence (P11509 1-494)": "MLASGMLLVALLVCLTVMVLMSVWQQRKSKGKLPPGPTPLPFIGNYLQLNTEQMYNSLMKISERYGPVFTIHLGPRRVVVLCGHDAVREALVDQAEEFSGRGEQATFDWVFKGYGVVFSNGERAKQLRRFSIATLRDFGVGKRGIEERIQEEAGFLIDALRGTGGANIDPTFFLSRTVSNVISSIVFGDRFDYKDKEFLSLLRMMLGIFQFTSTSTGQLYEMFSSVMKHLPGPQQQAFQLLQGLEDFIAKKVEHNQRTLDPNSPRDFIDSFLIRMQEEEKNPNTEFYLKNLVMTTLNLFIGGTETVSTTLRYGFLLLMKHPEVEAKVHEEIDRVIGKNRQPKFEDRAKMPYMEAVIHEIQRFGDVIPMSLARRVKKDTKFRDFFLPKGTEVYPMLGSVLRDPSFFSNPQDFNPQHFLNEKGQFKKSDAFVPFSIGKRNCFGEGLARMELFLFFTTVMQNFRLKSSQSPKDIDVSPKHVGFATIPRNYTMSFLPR", "assay_type": "biochemical", "details": "for IC50: nicotine 100 μM, rec CYP2A6 microsomes; for inhibition of cotinine formation: nicotine substrate, CYP2A6 microsomes, vs 100% activity control"}, "[3]": {"molecular_target": "T3, CYP2B6 (Homo sapiens, UniProt P20813)", "T3 sequence (P20813 1-491)": "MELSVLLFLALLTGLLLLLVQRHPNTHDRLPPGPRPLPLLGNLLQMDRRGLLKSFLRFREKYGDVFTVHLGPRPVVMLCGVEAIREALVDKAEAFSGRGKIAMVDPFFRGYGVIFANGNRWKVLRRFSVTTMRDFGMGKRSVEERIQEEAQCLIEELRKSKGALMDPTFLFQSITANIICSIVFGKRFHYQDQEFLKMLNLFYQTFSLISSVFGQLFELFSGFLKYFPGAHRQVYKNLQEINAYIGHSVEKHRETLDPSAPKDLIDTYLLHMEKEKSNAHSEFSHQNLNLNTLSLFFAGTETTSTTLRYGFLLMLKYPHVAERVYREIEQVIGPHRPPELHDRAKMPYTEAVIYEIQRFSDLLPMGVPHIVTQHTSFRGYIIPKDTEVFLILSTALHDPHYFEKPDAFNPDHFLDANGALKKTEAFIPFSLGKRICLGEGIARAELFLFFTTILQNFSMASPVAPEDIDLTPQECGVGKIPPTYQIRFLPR", "assay_type": "biochemical", "details": "for inhibition of cotinine formation: nicotine substrate, CYP2B6 microsomes"}, "[4]": {"molecular_target": "T4, UGT2B7 (Homo sapiens, UniProt P16662)", "T4 sequence (P16662 24-529)": "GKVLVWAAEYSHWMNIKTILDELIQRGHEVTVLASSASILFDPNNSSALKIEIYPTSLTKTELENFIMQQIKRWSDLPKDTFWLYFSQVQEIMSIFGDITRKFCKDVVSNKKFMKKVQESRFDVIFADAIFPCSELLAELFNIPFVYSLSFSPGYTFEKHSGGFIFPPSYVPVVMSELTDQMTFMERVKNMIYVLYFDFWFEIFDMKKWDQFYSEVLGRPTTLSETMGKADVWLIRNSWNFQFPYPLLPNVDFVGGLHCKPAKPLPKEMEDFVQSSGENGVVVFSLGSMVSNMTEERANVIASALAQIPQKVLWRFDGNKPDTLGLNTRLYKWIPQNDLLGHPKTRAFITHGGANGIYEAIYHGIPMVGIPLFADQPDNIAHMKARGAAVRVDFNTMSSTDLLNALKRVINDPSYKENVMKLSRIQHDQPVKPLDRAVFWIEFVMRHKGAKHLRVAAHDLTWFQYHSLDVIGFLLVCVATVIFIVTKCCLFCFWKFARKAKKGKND", "assay_type": "biochemical", "details": "for decrease in 3HC-Gluc formation: 3HC 30 mM, UGT2B7 microsomes"}, "[5]": {"molecular_target": "T2, CYP2A6", "assay_type": "biochemical", "details": "for IC50: nicotine 50 μM, rec CYP2A6 microsomes; for inhibition of nornicotine formation: nicotine substrate, CYP2A6 microsomes"}, "[6]": {"details": "to protein and labware; cited from earlier work"}, "[7]": {"molecular_target": "T3, CYP2B6", "assay_type": "biochemical", "details": "for inhibition of nornicotine formation: nicotine substrate, CYP2B6 microsomes"}, "[8]": {"molecular_target": "CYP2C19 (Homo sapiens, UniProt P33261)", "sequence (P33261 whole entry)": "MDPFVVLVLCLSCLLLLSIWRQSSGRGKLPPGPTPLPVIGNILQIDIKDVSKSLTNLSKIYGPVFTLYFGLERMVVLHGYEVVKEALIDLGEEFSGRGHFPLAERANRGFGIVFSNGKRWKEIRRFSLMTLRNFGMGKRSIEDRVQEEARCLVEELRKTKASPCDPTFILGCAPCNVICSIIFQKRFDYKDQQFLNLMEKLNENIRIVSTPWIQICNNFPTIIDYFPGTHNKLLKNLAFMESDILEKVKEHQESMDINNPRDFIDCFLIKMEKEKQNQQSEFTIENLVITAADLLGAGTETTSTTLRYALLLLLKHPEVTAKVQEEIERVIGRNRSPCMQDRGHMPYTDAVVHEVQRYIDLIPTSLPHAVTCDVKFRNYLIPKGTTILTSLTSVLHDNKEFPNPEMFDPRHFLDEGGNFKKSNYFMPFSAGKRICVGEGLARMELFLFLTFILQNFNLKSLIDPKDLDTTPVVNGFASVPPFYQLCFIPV", "assay_type": "biochemical", "details": "10 μM inhibitor; cotinine substrate; CYP2C19 microsomes"}, "[9]": {"details": "human, microsomes from CYP2B6-overexpressing HEK293 cells, pH 7.4, probe nicotine (cotinine formation)"}, "[10]": {"details": "human, microsomes from CYP2B6-overexpressing HEK293 cells, pH 7.4, probe nicotine (nornicotine formation)"}}, "note": "Where two headings read alike, the source gives them in different places."}
{"smiles": "C=C(C)[C@@H]1CCC(C)=C[C@H]1c1c(O)cc(CCCCC)cc1O", "note": "[CBD, cannabidiol]", "values": [{"measurement": "inhibition of nicotine-Gluc or cotinine-Gluc formation", "setting": "[1]", "value": "no significant inhibition"}, {"measurement": "IC50", "setting": "[2]; IC50, cotinine formation, mean ± SD of three experiments", "value": "4400 ± 1000", "unit": "nM"}, {"measurement": "IC50", "setting": "[2]; IC50,u (binding-corrected IC50), cotinine formation, IC50 × fu,inc", "value": "270 ± 60", "unit": "nM"}, {"measurement": "IC50", "setting": "[3]", "value": "4200 ± 2700", "unit": "nM"}, {"measurement": "inhibition at 30 min, 1 µM", "setting": "[3]; [9]", "value": 50, "unit": "%"}, {"measurement": "inhibition at 30 min, 10 µM", "setting": "[3]; [9]", "value": 65, "unit": "%"}, {"measurement": "decrease in 3HC-Gluc formation", "setting": "[4]; 1 μM CBD", "value": 35, "unit": "%"}, {"measurement": "decrease in 3HC-Gluc formation", "setting": "[4]; 10 μM CBD", "value": 55, "unit": "%"}, {"measurement": "inhibition at 100 μM", "setting": "[4]; human, microsomes from UGT2B7-overexpressing HEK293 cells, pH 7.4, probe 3HC (30 mM), 3HC-Gluc formation", "value": "> 50", "unit": "%"}, {"measurement": "IC50", "setting": "[5]; IC50, nornicotine formation", "value": "3700 ± 2200", "unit": "nM"}, {"measurement": "IC50", "setting": "[5]; IC50,u (binding-corrected IC50), nornicotine formation, IC50 × fu,inc", "value": "230 ± 140", "unit": "nM"}, {"measurement": "nonspecific binding", "setting": "[6]", "value": "70–90%"}, {"measurement": "IC50", "setting": "[7]; IC50, nornicotine formation, nicotine 100 μM, rec CYP2B6 microsomes", "value": "470 ± 77", "unit": "nM"}, {"measurement": "IC50", "setting": "[7]; IC50,u (binding-corrected IC50), nornicotine formation, nicotine 100 μM, rec CYP2B6 microsomes, IC50 × fu,inc", "value": "29 ± 5", "unit": "nM"}, {"measurement": "IC50 at 30 min", "setting": "[7]; human, microsomes from CYP2B6-overexpressing HEK293 cells, pH 7.4, probe nicotine 100 μM (nornicotine formation), IC50,u (binding-corrected IC50), nornicotine formation, nicotine 100 μM, rec CYP2B6 microsomes, IC50 × fu,inc", "value": "30 ± 5", "unit": "nM"}, {"measurement": "inhibition at 30 min, 1 µM", "setting": "[7]; [10]", "value": 75, "unit": "%"}, {"measurement": "inhibition at 30 min, 10 µM", "setting": "[7]; [10]", "value": 85, "unit": "%"}]}
{"smiles": "C=C(C)[C@@H]1CCC(CO)=C[C@H]1c1c(O)cc(CCCCC)cc1O", "note": "[7-OH-CBD, 7-hydroxy-cannabidiol]", "values": [{"measurement": "inhibition of nicotine-Gluc or cotinine-Gluc formation", "setting": "[1]", "value": "no significant inhibition"}, {"measurement": "inhibition of cotinine formation", "setting": "[2]; 1 μM inhibitor", "value": 50, "unit": "%"}, {"measurement": "inhibition of cotinine formation", "setting": "[2]; 10 μM inhibitor", "value": 75, "unit": "%"}, {"measurement": "IC50", "setting": "[2]; cotinine formation, mean ± SD of three experiments", "value": "5800 ± 2300", "unit": "nM"}, {"measurement": "IC50", "setting": "[2]; read-out: IC50,u (binding-corrected IC50), cotinine formation, IC50 × fu,inc", "value": "450 ± 180", "unit": "nM"}, {"measurement": "inhibition of cotinine formation", "setting": "[3]; 1 μM inhibitor", "value": 35, "unit": "%"}, {"measurement": "inhibition of cotinine formation", "setting": "[3]; 10 μM inhibitor", "value": 50, "unit": "%"}, {"measurement": "IC50", "setting": "[3]; cotinine formation, nicotine 500 μM, rec CYP2B6 microsomes", "value": "15000 ± 5700", "unit": "nM"}, {"measurement": "inhibition of COX formation", "setting": "[8]", "value": 15, "unit": "%"}, {"measurement": "inhibition of nornicotine formation", "setting": "[5]; 1 μM inhibitor", "value": 55, "unit": "%"}, {"measurement": "inhibition of nornicotine formation", "setting": "[5]; 10 μM inhibitor", "value": 70, "unit": "%"}, {"measurement": "IC50", "setting": "[5]; nornicotine formation", "value": "2100 ± 970", "unit": "nM"}, {"measurement": "IC50", "setting": "[5]; read-out: IC50,u (binding-corrected IC50), nornicotine formation, IC50 × fu,inc", "value": "160 ± 80", "unit": "nM"}, {"measurement": "inhibition of nornicotine formation", "setting": "[7]; 1 μM inhibitor", "value": 64, "unit": "%"}, {"measurement": "inhibition of nornicotine formation", "setting": "[7]; 10 μM inhibitor", "value": 72, "unit": "%"}, {"measurement": "IC50", "setting": "[7]; nornicotine formation, nicotine 100 μM, rec CYP2B6 microsomes", "value": "1400 ± 400", "unit": "nM"}, {"measurement": "IC50", "setting": "[7]; read-out: IC50,u (binding-corrected IC50), nornicotine formation, nicotine 100 μM, rec CYP2B6 microsomes, IC50 × fu,inc", "value": "110 ± 30", "unit": "nM"}]}
